A word on the Ki: it is a dissociation constant, usually derived from enzyme kinetics or from competition with a known ligand.

Structures are written as SMILES.

The assay deals with rat MCH-1 (Rattus norvegicus, UniProt P97639). Briefly: Radioligand binding assay at cloned rat MCH1 receptor ([3H] Compound A). Conditions: cloned rat MCH1 receptor, membranes from Peakr293 cells, 0.08 nM [3H] Compound A; read-out: Ki (nM) rMCH1. Details: host or cells: Peak rapid 293 (Peakr293) cells, transient calcium phosphate transfection, membranes.
Sequence of rat MCH-1 (P97639 whole entry): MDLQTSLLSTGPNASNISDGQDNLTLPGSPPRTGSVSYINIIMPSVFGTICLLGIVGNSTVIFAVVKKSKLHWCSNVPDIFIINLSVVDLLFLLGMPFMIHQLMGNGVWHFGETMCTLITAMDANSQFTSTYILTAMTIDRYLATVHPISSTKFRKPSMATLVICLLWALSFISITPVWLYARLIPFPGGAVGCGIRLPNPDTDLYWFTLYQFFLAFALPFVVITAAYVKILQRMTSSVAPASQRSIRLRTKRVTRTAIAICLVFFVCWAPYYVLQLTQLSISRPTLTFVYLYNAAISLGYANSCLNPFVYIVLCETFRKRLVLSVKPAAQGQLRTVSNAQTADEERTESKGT
Turning to `COc1ccc2[nH]c(-c3ccccc3)c(CCCCN3CCC(c4cccc(NC(=O)C(C)C)c4)CC3)c2c1` [Example 92], the Ki was 8 nM.

As for `CC(C)C(=O)Nc1cccc(C2CCN(Cc3cn(-c4ccccc4)c4ccccc34)CC2)c1` [Example 93], the Ki amounted to 4.2 nM.

With `CC(C)C(=O)Nc1cccc(C2CCN(CCC/C(=N\Nc3ccccn3)c3ccccc3)CC2)c1` [Example 94], the Ki came to 2.3 nM.

Turning to `COc1ccc2[nH]cc(CCCN3CCC(c4cccc(NC(=O)C(C)C)c4)CC3)c2c1` [Example 95], the Ki is 5.4 nM.

In the case of `CC(C)C(=O)Nc1cccc(C2CCN(CCCCCCn3ccc4ccccc43)CC2)c1` [Example 96], the Ki turned out to be 15.9 nM.

Regarding `CC(C)C(=O)Nc1cccc(C2CCN(CCCCCn3ccc4ccccc43)CC2)c1` [Example 97], the Ki worked out at 27.3 nM.

As for `CCn1c2ccccc2c2cc(CN3CCC(c4ccc(NC(=O)C(C)C)cc4)CC3)ccc21` [Example 98], the Ki was 37.9 nM.

For `COc1ccc(-n2ccc3cc(CN4CCC(c5cccc(NC(=O)C(C)C)c5)CC4)ccc32)cc1` [Example 100], the Ki turned out to be 27.5 nM.

As for `CC(C)C(=O)Nc1cccc(C2CCN(Cc3ccc4c(ccn4-c4ccc(F)cc4)c3)CC2)c1` [Example 101], the Ki came out at 7.8 nM.

Consider `Cc1cccc(-n2ccc3cc(CN4CCC(c5cccc(NC(=O)C(C)C)c5)CC4)ccc32)c1` [Example 103], for which the inhibition constant (Ki) was 21.3 nM.

Take `CC(C)C(=O)Nc1cccc(C2CCN(CCCNS(=O)(=O)c3ccc(Cl)c([N+](=O)[O-])c3)CC2)c1` [Example 104]: the Ki came to 11.2 nM.

For the compound `CC(C)C(=O)Nc1cccc(C2CCN(CCCCCN3C(=O)OCC3c3ccc(F)c(F)c3)CC2)c1` (stereo not shown) [Example 105], the Ki came out at 4.6 nM.

In the case of `CC(C)C(=O)Nc1cccc(C2CCN(CCNC(=O)C(c3ccccc3)c3ccccc3)CC2)c1` [Example 107], the Ki is 1.7 nM.

For `Cc1cc(CN2CCC(c3cccc(NC(=O)C(C)C)c3)CC2)c(C)n1-c1cccc(C(F)(F)F)c1` [Example 109], the Ki was 20.9 nM.

As to `CC(C)C(=O)Nc1cccc(C2CCN(Cc3ccc(Oc4ccc(Cl)c(Cl)c4)cc3)CC2)c1` [Example 112], the Ki was determined as 6.1 nM.

For the compound `CC(C)C(=O)Nc1cccc(C2CCN(Cc3ccc(N(c4ccccc4)c4ccccc4)cc3)CC2)c1` [Example 114], the Ki was 3.6 nM.

Regarding `CC(C)C(=O)Nc1cccc(C2CCN(CCC(=O)c3ccc(Br)cc3)CC2)c1` [Example 117], the Ki was 19 nM.

With `CC(C)C(=O)Nc1cccc(C2CCN(CCC(=O)c3ccc(Cl)cc3)CC2)c1` [Example 118], the Ki turned out to be 43.6 nM.

Take `COc1ccc(C(=O)CCN2CCC(c3cccc(NC(=O)C(C)C)c3)CC2)cc1` [Example 119]: the Ki was found to be 75.7 nM.

For the compound `CC(C)C(=O)Nc1cccc(C2CCN(CCC(=O)c3ccc4c(c3)CCC4)CC2)c1` [Example 120], the Ki was determined as 31.1 nM.

`CC(C)C(=O)Nc1cccc(C2CCN(CCC(=O)c3ccccc3)CC2)c1` [Example 121]: the Ki is 184 nM.

On to `Cc1ccc(C(=O)CCN2CCC(c3cccc(NC(=O)C(C)C)c3)CC2)cc1` [Example 122], for which the Ki was found to be 85.1 nM.

As to `CC(C)C(=O)Nc1cccc(C2CCN(CCC(=O)c3ccc(F)cc3)CC2)c1` [Example 123], the Ki is 450 nM.

Turning to `CC(C)C(=O)Nc1cccc(C2CCN(CCC(O)c3ccc(Cl)cc3)CC2)c1` (stereo not shown) [Example 124], the Ki worked out at 33 nM.

As to `CC(C)C(=O)Nc1cccc(C2CCN(CCC(Oc3ccc(F)c(F)c3)c3ccc(Cl)cc3)CC2)c1` (stereo not shown) [Example 125], the Ki came to 5.4 nM.

With `Cc1ccccc1OC(CCN1CCC(c2cccc(NC(=O)C(C)C)c2)CC1)c1ccc(Cl)cc1` (stereo not shown) [Example 126], the Ki amounted to 13.8 nM.

As to `CC(C)C(=O)Nc1cccc(C2CCN(CCC(O)c3ccc(F)cc3)CC2)c1` (stereo not shown) [Example 127], the Ki is 168 nM.

Regarding `COc1ccc(C(O)CCN2CCC(c3cccc(NC(=O)C(C)C)c3)CC2)cc1` (stereo not shown) [Example 128, N-(3-{1-[3-HYDROXY-3-(4- METHOXYPHENYL)PROPYL]-4-PIPERIDINYL}PHENYL)-2-METHYLPROPANAMIDE], the Ki was 329 nM.

Consider `CC(C)C(=O)Nc1cccc(C2CCN(CCC(O)c3ccc(Br)cc3)CC2)c1` (stereo not shown) [Example 129], for which the Ki came to 38.8 nM.

For the compound `COc1ccc(OC(CCN2CCC(c3cccc(NC(=O)C(C)C)c3)CC2)c2ccc(Cl)cc2)cc1` (stereo not shown) [Example 130], the inhibition constant (Ki) came to 6 nM.

In the case of `CC(C)C(=O)Nc1cccc(C2CCN(CCC(Oc3ccc(Cl)cc3)c3ccc(F)cc3)CC2)c1` (stereo not shown) [Example 131], the Ki is 11.9 nM.

As to `CC(C)C(=O)Nc1cccc(C2CCN(CCC(Oc3c(F)c(F)c(F)c(F)c3F)c3ccc(F)cc3)CC2)c1` (stereo not shown) [Example 132], the inhibition constant (Ki) was determined as 41.7 nM.

Consider `Cc1ccccc1OC(CCN1CCC(c2cccc(NC(=O)C(C)C)c2)CC1)c1ccc(Br)cc1` (stereo not shown) [Example 133], for which the Ki was 14.1 nM.

Regarding `CC(C)C(=O)Nc1cccc(C2CCN(CCC(Oc3ccc(F)c(F)c3)c3ccc(F)cc3)CC2)c1` (stereo not shown) [Example 134], the Ki was 36.6 nM.

`CC(C)C(=O)Nc1cccc(C2CCN(CCC(Oc3ccc(Br)cc3)c3ccc(F)cc3)CC2)c1` (stereo not shown) [Example 135]: the Ki was 10.9 nM.

In the case of `CC(C)C(=O)Nc1cccc(C2CCN(CCC(Oc3ccc(Cl)c(Cl)c3)c3ccc(F)cc3)CC2)c1` (stereo not shown) [Example 136], the Ki stood at 15.9 nM.

As to `CC(C)C(=O)Nc1cccc(C2CCN(CCC(Oc3ccc(C(F)(F)F)cc3)c3ccc(F)cc3)CC2)c1` (stereo not shown) [Example 137], the inhibitory constant (Ki) amounted to 25.2 nM.

Regarding `CC(C)C(=O)Nc1cccc(C2CCN(CCC(Oc3cccc(Br)c3)c3ccc(F)cc3)CC2)c1` (stereo not shown) [Example 138], the Ki came to 9.3 nM.

As for `CC(C)C(=O)Nc1cccc(C2CCN(CCC(Oc3ccc(F)cc3)c3ccc(F)cc3)CC2)c1` (stereo not shown) [Example 139], the Ki worked out at 38.7 nM.

Turning to `CC(C)C(=O)Nc1cccc(C2CCN(CCC(Oc3cccc(F)c3)c3ccc(F)cc3)CC2)c1` (stereo not shown) [Example 140], the Ki worked out at 27.4 nM.

In the case of `CC(C)C(=O)Nc1cccc(C2CCN(CCC(Oc3c(Cl)cccc3Cl)c3ccc(F)cc3)CC2)c1` (stereo not shown) [Example 141], the Ki was determined as 61 nM.

Turning to `CC(C)C(=O)Nc1cccc(C2CCN(CCC(Oc3cc(F)ccc3F)c3ccc(F)cc3)CC2)c1` (stereo not shown) [Example 142], the Ki was 18.3 nM.

For the compound `CC(C)C(=O)Nc1cccc(C2CCN(CCC(Oc3cccc(Cl)c3)c3ccc(F)cc3)CC2)c1` (stereo not shown) [Example 143], the inhibitory constant (Ki) was found to be 8.7 nM.

As for `Cc1cccc(OC(CCN2CCC(c3cccc(NC(=O)C(C)C)c3)CC2)c2ccc(Br)cc2)c1` (stereo not shown) [Example 144], the Ki stood at 13.4 nM.

As for `CC(C)C(=O)Nc1cccc(C2CCN(CCC(Oc3ccc(-c4ccccc4)cc3)c3ccc(Br)cc3)CC2)c1` (stereo not shown) [Example 145], the Ki came out at 197 nM.

For the compound `CC(C)C(=O)Nc1cccc(C2CCN(CCC(Oc3ccc(F)cc3F)c3ccc(F)cc3)CC2)c1` (stereo not shown) [Example 146], the Ki was 19.2 nM.

Consider `COc1cccc(OC(CCN2CCC(c3cccc(NC(=O)C(C)C)c3)CC2)c2ccc(Br)cc2)c1` (stereo not shown) [Example 147], for which the Ki amounted to 8.7 nM.

In the case of `COC(=O)c1ccc(OC(CCN2CCC(c3cccc(NC(=O)C(C)C)c3)CC2)c2ccc(Br)cc2)cc1` (stereo not shown) [Example 148, METHYL 4-(1-(4-BROMOPHENYL)-3-{4-[3-(ISOBUTYRYLAMINO)PHENYL]-1-PIPERIDINYL}PROPOXY)BENZOATE], the Ki was 24.7 nM.

As for `CC(C)C(=O)Nc1cccc(C2CCN(CCC(Oc3ccc(Oc4ccccc4)cc3)c3ccc(Br)cc3)CC2)c1` (stereo not shown) [Example 149], the Ki amounted to 149 nM.

As to `Cc1ccc(OC(CCN2CCC(c3cccc(NC(=O)C(C)C)c3)CC2)c2ccc(Br)cc2)c(Cl)c1` (stereo not shown) [Example 150], the Ki turned out to be 8 nM.

On to `CC(C)C(=O)Nc1cccc(C2CCN(CCC(Oc3ccccc3)c3ccc(Br)cc3)CC2)c1` (stereo not shown) [Example 151], for which the Ki was found to be 14.2 nM.

As for `CC(C)C(=O)Nc1cccc(C2CCN(CCC(Oc3ccc(C(F)(F)F)cc3)c3ccc(Br)cc3)CC2)c1` (stereo not shown) [Example 152], the Ki was found to be 13.3 nM.

For `CC(=O)c1ccccc1OC(CCN1CCC(c2cccc(NC(=O)C(C)C)c2)CC1)c1ccc(Br)cc1` (stereo not shown) [Example 153], the Ki came out at 8.1 nM.

As to `CC(=O)c1cccc(OC(CCN2CCC(c3cccc(NC(=O)C(C)C)c3)CC2)c2ccc(Br)cc2)c1` (stereo not shown) [Example 154], the inhibition constant (Ki) came to 9.3 nM.

With `CC(=O)c1cccc(OC(CCN2CCC(c3cccc(NC(=O)C(C)C)c3)CC2)c2ccc3c(c2)CCC3)c1` (stereo not shown) [Example 155], the Ki came out at 7.4 nM.

Regarding `CC(C)C(=O)Nc1cccc(C2CCN(CCC(Oc3ccccc3)c3ccc4c(c3)CCC4)CC2)c1` (stereo not shown) [Example 156], the Ki came out at 8.8 nM.

In the case of `CC(=O)c1ccccc1OC(CCN1CCC(c2cccc(NC(=O)C(C)C)c2)CC1)c1ccc2c(c1)CCC2` (stereo not shown) [Example 157, N-(3-{1-[3-(2- ACETYLPHENOXY)-3-(2,3-DIHYDRO-1H-INDEN-5-YL)PROPYL]-4-PIPERIDINYL}PHENYL)-2-METHYLPROPANAMIDE], the Ki is 15.4 nM.

Take `CC(C)C(=O)Nc1cccc(C2CCN(CCC(Oc3ccc(Br)cc3)c3ccc(Br)cc3)CC2)c1` (stereo not shown) [Example 158]: the Ki stood at 7.8 nM.

Regarding `CC(C)C(=O)Nc1cccc(C2CCN(CCC(Oc3ccc(Cl)cc3)c3ccc(Br)cc3)CC2)c1` (stereo not shown) [Example 159], the Ki is 4.5 nM.

Consider `CC(C)C(=O)Nc1cccc(C2CCN(CCC(Oc3ccc(F)cc3)c3ccc(Br)cc3)CC2)c1` (stereo not shown) [Example 160], for which the Ki stood at 6.2 nM.

For the compound `COc1ccc(OC(CCN2CCC(c3cccc(NC(=O)C(C)C)c3)CC2)c2ccc3c(c2)CCC3)cc1` (stereo not shown) [Example 161], the Ki stood at 7.9 nM.

For the compound `CC(C)C(=O)Nc1cccc(C2CCN(CCC(Oc3ccc(F)cc3)c3ccc4c(c3)CCC4)CC2)c1` (stereo not shown) [Example 162], the inhibition constant Ki amounted to 7.2 nM.

As to `CC(C)C(=O)Nc1cccc(C2CCN(CCC(O)c3ccc4c(c3)CCC4)CC2)c1` (stereo not shown) [Example 163], the Ki worked out at 58.3 nM.

`CC(C)C(=O)Nc1cccc(C2CCN(CCC(Oc3ccc(C(F)(F)F)cc3)c3ccc4c(c3)CCC4)CC2)c1` (stereo not shown) [Example 164]: the Ki came to 16.3 nM.

The values are drawn from US6727264B1 (Synaptic Pharmaceutical Corporation, priority 2001, dated 2004).
